Assay results taken from PubChem BioAssay AID2060342 (Molecular Pharmacology Branch, DTP, NCI, 2025).

System: 171881-019-R-J1-PDC multicell spheroid viability
Test: Anticancer human tumor 171881-019-R-J1-PDC patient-derived invasive breast carcinoma cell line growth inhibition [IpAb]
Conditions: for IC50: curve of first compound; for viability, T/C: stronger effect = lower value
Method in brief: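 Multi-cell spheroids of 60% tumour cells, 25% HUVEC and 15% MSC in ultra-low-attachment U-bottom wells, treated with agents combined with ipatasertib or abemaciclib. Half-log ranges top out near clinical Cmax, or 10 microM when Cmax is unknown.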

[1] = second compound 0.1 µM, first compound 0.0316 µM
[2] = second compound 0.1 µM, first compound 0.1 µM
[3] = second compound 0.1 µM, first compound 0.316 µM
[4] = second compound 0.1 µM, first compound 1 µM
[5] = second compound 0.1 µM, first compound 3.16 µM
[6] = second compound 0.1 µM, first compound 10 µM
[7] = second compound 0.316 µM, first compound 0.0316 µM
[8] = second compound 0.316 µM, first compound 0.1 µM
[9] = second compound 0.316 µM, first compound 0.316 µM
[10] = second compound 0.316 µM, first compound 1 µM
[11] = second compound 0.316 µM, first compound 3.16 µM
[12] = second compound 0.316 µM, first compound 10 µM
[13] = second compound 1 µM, first compound 0.0316 µM
[14] = second compound 1 µM, first compound 0.1 µM
[15] = second compound 1 µM, first compound 0.316 µM
[16] = second compound 1 µM, first compound 1 µM
[17] = second compound 1 µM, first compound 3.16 µM
[18] = second compound 1 µM, first compound 10 µM
[19] = second compound 3.16 µM, first compound 0.0316 µM
[20] = second compound 3.16 µM, first compound 0.1 µM
[21] = second compound 3.16 µM, first compound 0.316 µM
[22] = second compound 3.16 µM, first compound 1 µM
[23] = second compound 3.16 µM, first compound 3.16 µM
[24] = second compound 3.16 µM, first compound 10 µM
[25] = second compound 10 µM, first compound 0.0316 µM
[26] = second compound 10 µM, first compound 0.1 µM
[27] = second compound 10 µM, first compound 0.316 µM
[28] = second compound 10 µM, first compound 1 µM
[29] = second compound 10 µM, first compound 3.16 µM
[30] = second compound 10 µM, first compound 10 µM
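Further: spheroids exposed to the agents for seven days before readout.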

SMILES: C=CC(=O)N1CCN(c2nc(=O)n(-c3c(C)ccnc3C(C)C)c3nc(-c4c(O)cccc4F)c(F)cc23)C(C)C1 (stereo not given) + CC(C)NCC(C(=O)N1CCN(c2ncnc3c2C(C)CC3O)CC1)c1ccc(Cl)cc1
- IC50 (second compound 0.1 µM): 5260 nM
- IC50 (second compound 0.316 µM): 1830 nM
- IC50 (second compound 1 µM): < 31.6 nM
- IC50 (second compound 3.16 µM): < 31.6 nM
- IC50 (second compound 10 µM): < 31.6 nM
- viability, T/C [1]: 102%
- viability, T/C [2]: 87.7%
- viability, T/C [3]: 90%
- viability, T/C [4]: 95.9%
- viability, T/C [5]: 74.2%
- viability, T/C [6]: 19.5%
- viability, T/C [7]: 74.1%
- viability, T/C [8]: 67%
- viability, T/C [9]: 69%
- viability, T/C [10]: 64.7%
- viability, T/C [11]: 36.8%
- viability, T/C [12]: 13.2%
- viability, T/C [13]: 24.6%
- viability, T/C [14]: 26.6%
- viability, T/C [15]: 25.9%
- viability, T/C [16]: 22.1%
- viability, T/C [17]: 17.3%
- viability, T/C [18]: 7.56%
- viability, T/C [19]: 10.2%
- viability, T/C [20]: 11.7%
- viability, T/C [21]: 10.2%
- viability, T/C [22]: 11.5%
- viability, T/C [23]: 8.09%
- viability, T/C [24]: 4.11%
- viability, T/C [25]: 5.17%
- viability, T/C [26]: 5.24%
- viability, T/C [27]: 6.38%
- viability, T/C [28]: 5.65%
- viability, T/C [29]: 5.64%
- viability, T/C [30]: 3.86%

SMILES: CC(C)(C)c1cnc(CSc2cnc(NC(=O)C3CCNCC3)s2)o1 + CC(C)NCC(C(=O)N1CCN(c2ncnc3c2C(C)CC3O)CC1)c1ccc(Cl)cc1
- IC50 (second compound 0.1 µM): 187 nM
- IC50 (second compound 0.316 µM): 156 nM
- IC50 (second compound 1 µM): < 9.49 nM
- IC50 (second compound 3.16 µM): < 9.49 nM
- IC50 (second compound 10 µM): < 9.49 nM
- viability, T/C (second compound 0.1 µM, first compound 0.00949 µM): 104%
- viability, T/C (second compound 0.1 µM, first compound 0.03 µM): 120%
- viability, T/C (second compound 0.1 µM, first compound 0.0949 µM): 133%
- viability, T/C (second compound 0.1 µM, first compound 0.3 µM): 2.16%
- viability, T/C (second compound 0.1 µM, first compound 0.949 µM): 0.19%
- viability, T/C (second compound 0.1 µM, first compound 3 µM): 0.6%
- viability, T/C (second compound 0.316 µM, first compound 0.00949 µM): 82.3%
- viability, T/C (second compound 0.316 µM, first compound 0.03 µM): 91%
- viability, T/C (second compound 0.316 µM, first compound 0.0949 µM): 89.2%
- viability, T/C (second compound 0.316 µM, first compound 0.3 µM): 0.99%
- viability, T/C (second compound 0.316 µM, first compound 0.949 µM): 0.25%
- viability, T/C (second compound 0.316 µM, first compound 3 µM): 0.63%
- viability, T/C (second compound 1 µM, first compound 0.00949 µM): 24.9%
- viability, T/C (second compound 1 µM, first compound 0.03 µM): 34.3%
- viability, T/C (second compound 1 µM, first compound 0.0949 µM): 38.6%
- viability, T/C (second compound 1 µM, first compound 0.3 µM): 0.53%
- viability, T/C (second compound 1 µM, first compound 0.949 µM): 0.49%
- viability, T/C (second compound 1 µM, first compound 3 µM): 0.25%
- viability, T/C (second compound 3.16 µM, first compound 0.00949 µM): 11.1%
- viability, T/C (second compound 3.16 µM, first compound 0.03 µM): 13.2%
- viability, T/C (second compound 3.16 µM, first compound 0.0949 µM): 19.1%
- viability, T/C (second compound 3.16 µM, first compound 0.3 µM): 0.68%
- viability, T/C (second compound 3.16 µM, first compound 0.949 µM): 0.24%
- viability, T/C (second compound 3.16 µM, first compound 3 µM): 0.28%
- viability, T/C (second compound 10 µM, first compound 0.00949 µM): 5.77%
- viability, T/C (second compound 10 µM, first compound 0.03 µM): 6.05%
- viability, T/C (second compound 10 µM, first compound 0.0949 µM): 9.31%
- viability, T/C (second compound 10 µM, first compound 0.3 µM): 0.64%
- viability, T/C (second compound 10 µM, first compound 0.949 µM): 0.26%
- viability, T/C (second compound 10 µM, first compound 3 µM): 0.31%

SMILES: Cn1ncc(Cl)c1-c1cc(C(=O)NC(CN)Cc2cccc(F)c2)sc1Cl (stereo not given) + CC(C)NCC(C(=O)N1CCN(c2ncnc3c2C(C)CC3O)CC1)c1ccc(Cl)cc1
- IC50 (second compound 0.1 µM): 161 nM
- IC50 (second compound 0.316 µM): 66.3 nM
- IC50 (second compound 1 µM): < 31.6 nM
- IC50 (second compound 3.16 µM): < 31.6 nM
- IC50 (second compound 10 µM): < 31.6 nM
- viability, T/C [1]: 86.5%
- viability, T/C [2]: 67.3%
- viability, T/C [3]: 25%
- viability, T/C [4]: 13.1%
- viability, T/C [5]: 4.31%
- viability, T/C [6]: 0.42%
- viability, T/C [7]: 59.8%
- viability, T/C [8]: 45.3%
- viability, T/C [9]: 22.6%
- viability, T/C [10]: 10.6%
- viability, T/C [11]: 3.79%
- viability, T/C [12]: 0.18%
- viability, T/C [13]: 23.8%
- viability, T/C [14]: 20.8%
- viability, T/C [15]: 13.8%
- viability, T/C [16]: 9.71%
- viability, T/C [17]: 3.91%
- viability, T/C [18]: 0.14%
- viability, T/C [19]: 10.8%
- viability, T/C [20]: 10.5%
- viability, T/C [21]: 9.15%
- viability, T/C [22]: 7.27%
- viability, T/C [23]: 3.38%
- viability, T/C [24]: 0.25%
- viability, T/C [25]: 5.35%
- viability, T/C [26]: 5.51%
- viability, T/C [27]: 5.12%
- viability, T/C [28]: 4.62%
- viability, T/C [29]: 2.7%
- viability, T/C [30]: 0.21%

SMILES: Cn1nccc1Nc1nccc(-c2ccn(C(CO)c3ccc(Cl)c(F)c3)c(=O)c2)n1 (stereo not given) + CC(C)NCC(C(=O)N1CCN(c2ncnc3c2C(C)CC3O)CC1)c1ccc(Cl)cc1
- IC50 (second compound 0.1 µM): 169 nM
- IC50 (second compound 0.316 µM): 64.8 nM
- IC50 (second compound 1 µM): < 31.6 nM
- IC50 (second compound 3.16 µM): < 31.6 nM
- IC50 (second compound 10 µM): < 31.6 nM
- viability, T/C [1]: 111%
- viability, T/C [2]: 65.8%
- viability, T/C [3]: 32.5%
- viability, T/C [4]: 10.4%
- viability, T/C [5]: 7.79%
- viability, T/C [6]: 7.95%
- viability, T/C [7]: 69.1%
- viability, T/C [8]: 38.5%
- viability, T/C [9]: 9.02%
- viability, T/C [10]: 4.73%
- viability, T/C [11]: 3.47%
- viability, T/C [12]: 3.81%
- viability, T/C [13]: 17.9%
- viability, T/C [14]: 10.3%
- viability, T/C [15]: 3.68%
- viability, T/C [16]: 2.46%
- viability, T/C [17]: 2.13%
- viability, T/C [18]: 1.27%
- viability, T/C [19]: 6.73%
- viability, T/C [20]: 3.37%
- viability, T/C [21]: 2.44%
- viability, T/C [22]: 1.77%
- viability, T/C [23]: 0.69%
- viability, T/C [24]: 0.94%
- viability, T/C [25]: 3.16%
- viability, T/C [26]: 2.33%
- viability, T/C [27]: 1.55%
- viability, T/C [28]: 1.06%
- viability, T/C [29]: 0.84%
- viability, T/C [30]: 0.32%

SMILES: Cn1ncnc1[C@H]1c2n[nH]c(=O)c3cc(F)cc(c23)N[C@@H]1c1ccc(F)cc1 + CC(C)NCC(C(=O)N1CCN(c2ncnc3c2C(C)CC3O)CC1)c1ccc(Cl)cc1
- IC50 (second compound 0.1 µM): > 100 nM
- IC50 (second compound 0.316 µM): > 100 nM
- IC50 (second compound 1 µM): < 0.316 nM
- IC50 (second compound 3.16 µM): < 0.316 nM
- IC50 (second compound 10 µM): < 0.316 nM
- viability, T/C (second compound 0.1 µM, first compound 0.000316 µM): 102%
- viability, T/C (second compound 0.1 µM, first compound 0.001 µM): 114%
- viability, T/C (second compound 0.1 µM, first compound 0.00316 µM): 121%
- viability, T/C (second compound 0.1 µM, first compound 0.01 µM): 108%
- viability, T/C [1]: 108%
- viability, T/C [2]: 101%
- viability, T/C (second compound 0.316 µM, first compound 0.000316 µM): 74.8%
- viability, T/C (second compound 0.316 µM, first compound 0.001 µM): 75.1%
- viability, T/C (second compound 0.316 µM, first compound 0.00316 µM): 75.6%
- viability, T/C (second compound 0.316 µM, first compound 0.01 µM): 72.6%
- viability, T/C [7]: 65.8%
- viability, T/C [8]: 60.8%
- viability, T/C (second compound 1 µM, first compound 0.000316 µM): 27.4%
- viability, T/C (second compound 1 µM, first compound 0.001 µM): 24.4%
- viability, T/C (second compound 1 µM, first compound 0.00316 µM): 20.7%
- viability, T/C (second compound 1 µM, first compound 0.01 µM): 24.6%
- viability, T/C [13]: 20.3%
- viability, T/C [14]: 17.1%
- viability, T/C (second compound 3.16 µM, first compound 0.000316 µM): 10.7%
- viability, T/C (second compound 3.16 µM, first compound 0.001 µM): 12.5%
- viability, T/C (second compound 3.16 µM, first compound 0.00316 µM): 8.98%
- viability, T/C (second compound 3.16 µM, first compound 0.01 µM): 10%
- viability, T/C [19]: 8.89%
- viability, T/C [20]: 7.64%
- viability, T/C (second compound 10 µM, first compound 0.000316 µM): 5.76%
- viability, T/C (second compound 10 µM, first compound 0.001 µM): 5.36%
- viability, T/C (second compound 10 µM, first compound 0.00316 µM): 5.17%
- viability, T/C (second compound 10 µM, first compound 0.01 µM): 5.3%
- viability, T/C [25]: 4.77%
- viability, T/C [26]: 4.29%
